In US20170350889A1, “CELL IDENTIFICATION METHOD” (Centre National De La Recherche Scientifique (CNRS), priority 2014, published 2017):

System: macaques
Assay: Replication of the SIV virus expressing Cre recombinase after infection in macaques (viral RNA in plasma)
Type: in vivo
Conditions: one macaque infected, FIG. 17
Excerpt: FIG. 17 is a graph showing the replication of the SIV virus expressing Cre recombinase evaluated by the number of copies of viral RNA/ml of plasma (y-axis) after infection in macaques, as a function of time (in days).
The dose and the route of infection are able to be modified as a function of the scientific aims of the experimentation. A method is briefly described below: • Infect the macaques intravenously (50 AID50) or mucosally (50-5000 AID50). • Monitor the viral load in kinetic conditions by quantification of the viral RNAs in the plasma of the infected animals.

Substance: SIVmac239-Nef-IRES-Cre: SIVmac239 virus expressing Cre recombinase via Nef-IRES-Cre (SEQ ID NO: 25; plasmid SEQ ID NO: 13)
- replication dynamics (copies of viral RNA/ml of plasma over time): normal replication dynamics
